{"source": "paper PMC9403976", "about": "“Elucidating the path to Plasmodium prolyl-tRNA synthetase inhibitors that overcome halofuginone resistance” (Nature Communications, 2022)", "key": {"PfcProRS": {"target": "T1, PfcProRS (Plasmodium falciparum, UniProt Q8I5R7)", "T1 construct": "made in house; host or cells: E. coli SoluBL-21", "T1 sequence (Q8I5R7 249-746)": "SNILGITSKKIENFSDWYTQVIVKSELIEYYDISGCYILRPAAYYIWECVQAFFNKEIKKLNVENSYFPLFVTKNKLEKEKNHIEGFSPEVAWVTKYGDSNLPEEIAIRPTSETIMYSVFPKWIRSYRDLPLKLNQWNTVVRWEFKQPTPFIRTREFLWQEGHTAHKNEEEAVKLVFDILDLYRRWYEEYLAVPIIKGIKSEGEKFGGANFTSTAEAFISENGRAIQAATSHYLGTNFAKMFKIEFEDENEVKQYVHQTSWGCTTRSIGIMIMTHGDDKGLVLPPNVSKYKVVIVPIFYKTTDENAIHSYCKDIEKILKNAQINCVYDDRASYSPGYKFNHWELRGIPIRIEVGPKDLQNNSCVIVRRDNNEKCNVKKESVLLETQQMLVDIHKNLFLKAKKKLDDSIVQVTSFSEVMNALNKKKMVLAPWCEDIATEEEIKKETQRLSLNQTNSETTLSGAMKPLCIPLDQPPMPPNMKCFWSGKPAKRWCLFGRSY", "type": "binding", "details": "single replicates"}, "HsProRS": {"target": "HsProRS (Homo sapiens, UniProt P07814)", "sequence (P07814 996-1512)": "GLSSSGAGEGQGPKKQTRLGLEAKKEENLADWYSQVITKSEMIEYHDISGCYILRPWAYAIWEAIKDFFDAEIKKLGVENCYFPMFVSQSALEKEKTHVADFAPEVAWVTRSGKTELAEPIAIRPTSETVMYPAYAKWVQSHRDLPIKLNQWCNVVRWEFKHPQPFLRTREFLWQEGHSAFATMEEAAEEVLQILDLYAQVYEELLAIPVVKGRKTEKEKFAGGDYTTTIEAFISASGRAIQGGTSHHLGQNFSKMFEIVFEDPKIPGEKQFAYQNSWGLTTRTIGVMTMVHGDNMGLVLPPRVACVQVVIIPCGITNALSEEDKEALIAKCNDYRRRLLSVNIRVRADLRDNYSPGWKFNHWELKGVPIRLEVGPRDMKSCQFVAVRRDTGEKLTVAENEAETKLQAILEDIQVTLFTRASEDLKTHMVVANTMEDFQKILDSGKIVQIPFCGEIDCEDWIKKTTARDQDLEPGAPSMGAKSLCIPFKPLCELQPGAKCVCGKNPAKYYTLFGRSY", "assay": "TR-FRET ligand displacement assay with tracer MAT379 (CoraFluor-1-Halo and anti-His6 antibody formats)", "type": "binding", "design": "made in house; host or cells: E. coli SoluBL-21", "details": "for TR-FRET dose-response, normalized signal (SI Fig 11): individual replicates"}, "P. falciparum Dd2-2D4": {"test_system": "P. falciparum Dd2-2D4", "assay": "P. falciparum asexual blood stage (ABS) growth assay, SYBR Green, 72 h, wild-type parasites", "type": "cell-based, Plasmodium falciparum"}}, "note": "Values joined by “and” are separate entries in the source; they are usually repeats but may differ in a detail not shown here. Equal entries are not always repeated. Where two headings read alike, the source gives them in different places."}
{"smiles": "O=C(O)CCCC(=O)Nc1nccnc1C(=O)NC1Cc2ccccc2C1", "note": "[compound 22]", "values": [{"measurement": "dose-response signal (normalized), SI Fig 8", "setting": "PfcProRS; Log[inhibitor] (M) -5.000", "result": "9.06E-01 and 9.64E-01 and 8.26E-01"}, {"measurement": "dose-response signal (normalized), SI Fig 8", "setting": "PfcProRS; Log[inhibitor] (M) -5.301", "result": "1.01E+00 (2×) and 9.72E-01"}, {"measurement": "dose-response signal (normalized), SI Fig 8", "setting": "PfcProRS; Log[inhibitor] (M) -5.601", "result": "9.26E-01 and 1.02E+00 and 9.22E-01"}, {"measurement": "dose-response signal (normalized), SI Fig 8", "setting": "PfcProRS; Log[inhibitor] (M) -5.904", "result": "9.72E-01 and 1.05E+00 and 1.09E+00"}, {"measurement": "dose-response signal (normalized), SI Fig 8", "setting": "PfcProRS; Log[inhibitor] (M) -6.208", "result": "1.07E+00 (2×) and 9.87E-01"}, {"measurement": "dose-response signal (normalized), SI Fig 8", "setting": "PfcProRS; Log[inhibitor] (M) -6.509", "result": "1.07E+00 and 1.14E+00 and 1.02E+00"}, {"measurement": "dose-response signal (normalized), SI Fig 8", "setting": "PfcProRS; Log[inhibitor] (M) -6.796", "result": "9.89E-01 and 1.07E+00 and 9.33E-01"}, {"measurement": "dose-response signal (normalized), SI Fig 8", "setting": "PfcProRS; Log[inhibitor] (M) -7.108", "result": "1.06E+00 and 1.00E+00 and 1.02E+00"}, {"measurement": "dose-response signal (normalized), SI Fig 8", "setting": "PfcProRS; Log[inhibitor] (M) -7.409", "result": "9.62E-01 and 1.08E+00 and 9.97E-01"}, {"measurement": "dose-response signal (normalized), SI Fig 8", "setting": "PfcProRS; Log[inhibitor] (M) -7.710", "result": "1.02E+00 and 9.90E-01 and 1.13E+00"}, {"measurement": "dose-response signal (normalized), SI Fig 8", "setting": "PfcProRS; Log[inhibitor] (M) -8.000", "result": "1.05E+00 (2×) and 1.10E+00"}, {"measurement": "dose-response signal (normalized), SI Fig 8", "setting": "PfcProRS; Log[inhibitor] (M) -8.301", "result": "1.05E+00 and 1.11E+00 and 1.20E+00"}, {"measurement": "dose-response signal (normalized), SI Fig 8", "setting": "PfcProRS; Log[inhibitor] (M) -8.602", "result": "9.67E-01 and 1.09E+00 and 1.08E+00"}, {"measurement": "dose-response signal (normalized), SI Fig 8", "setting": "PfcProRS; Log[inhibitor] (M) -9.000", "result": "9.27E-01 and 1.05E+00 and 1.07E+00"}, {"measurement": "dose-response signal (normalized), SI Fig 8", "setting": "PfcProRS; Log[inhibitor] (M) -9.301", "result": "1.08E+00 and 1.15E+00 and 9.88E-01"}, {"measurement": "IC50", "setting": "HsProRS", "result": "> 10", "unit": "µM"}, {"measurement": "HsProRS % signal at 10 μM, + 100 μM proline", "setting": "HsProRS; + 100 μM proline, 10 μM", "result": 79.2, "unit": "%"}, {"measurement": "normalized TR-FRET ligand displacement signal, dose-response replicates (SI Fig 6)", "setting": "HsProRS; Log[inhibitor] (M) -5.000", "result": "6.88E-01 and 7.76E-01 and 7.44E-01"}, {"measurement": "TR-FRET dose-response, normalized signal (SI Fig 11)", "setting": "HsProRS; Log[inhibitor] (M) -5.000", "result": "7.43E-01 and 6.59E-01 and 7.38E-01"}, {"measurement": "normalized TR-FRET ligand displacement signal, dose-response replicates (SI Fig 6)", "setting": "HsProRS; Log[inhibitor] (M) -5.301", "result": "8.82E-01 (2×) and 7.80E-01"}, {"measurement": "TR-FRET dose-response, normalized signal (SI Fig 11)", "setting": "HsProRS; Log[inhibitor] (M) -5.301", "result": "8.33E-01 and 8.41E-01 and 8.52E-01"}, {"measurement": "normalized TR-FRET ligand displacement signal, dose-response replicates (SI Fig 6)", "setting": "HsProRS; Log[inhibitor] (M) -5.601", "result": "8.80E-01 and 9.45E-01 and 8.65E-01"}, {"measurement": "TR-FRET dose-response, normalized signal (SI Fig 11)", "setting": "HsProRS; Log[inhibitor] (M) -5.601", "result": "9.39E-01 and 8.79E-01 and 9.13E-01"}, {"measurement": "normalized TR-FRET ligand displacement signal, dose-response replicates (SI Fig 6)", "setting": "HsProRS; Log[inhibitor] (M) -5.904", "result": "1.02E+00 and 1.06E+00 and 9.13E-01"}, {"measurement": "TR-FRET dose-response, normalized signal (SI Fig 11)", "setting": "HsProRS; Log[inhibitor] (M) -5.904", "result": "9.47E-01 and 9.57E-01 and 9.01E-01"}, {"measurement": "normalized TR-FRET ligand displacement signal, dose-response replicates (SI Fig 6)", "setting": "HsProRS; Log[inhibitor] (M) -6.208", "result": "1.04E+00 and 1.02E+00 and 9.07E-01"}, {"measurement": "TR-FRET dose-response, normalized signal (SI Fig 11)", "setting": "HsProRS; Log[inhibitor] (M) -6.208", "result": "1.02E+00 and 9.48E-01 and 9.47E-01"}, {"measurement": "normalized TR-FRET ligand displacement signal, dose-response replicates (SI Fig 6)", "setting": "HsProRS; Log[inhibitor] (M) -6.509", "result": "8.91E-01 and 9.55E-01 and 1.01E+00"}, {"measurement": "TR-FRET dose-response, normalized signal (SI Fig 11)", "setting": "HsProRS; Log[inhibitor] (M) -6.509", "result": "9.53E-01 and 9.49E-01 and 9.29E-01"}, {"measurement": "normalized TR-FRET ligand displacement signal, dose-response replicates (SI Fig 6)", "setting": "HsProRS; Log[inhibitor] (M) -6.796", "result": "1.03E+00 and 1.02E+00 and 9.73E-01"}, {"measurement": "TR-FRET dose-response, normalized signal (SI Fig 11)", "setting": "HsProRS; Log[inhibitor] (M) -6.796", "result": "9.39E-01 and 9.96E-01 and 9.21E-01"}, {"measurement": "normalized TR-FRET ligand displacement signal, dose-response replicates (SI Fig 6)", "setting": "HsProRS; Log[inhibitor] (M) -7.108", "result": "1.09E+00 and 9.83E-01 and 1.08E+00"}, {"measurement": "TR-FRET dose-response, normalized signal (SI Fig 11)", "setting": "HsProRS; Log[inhibitor] (M) -7.108", "result": "9.39E-01 and 9.94E-01 and 9.05E-01"}, {"measurement": "normalized TR-FRET ligand displacement signal, dose-response replicates (SI Fig 6)", "setting": "HsProRS; Log[inhibitor] (M) -7.409", "result": "9.62E-01 and 1.05E+00 and 9.54E-01"}, {"measurement": "TR-FRET dose-response, normalized signal (SI Fig 11)", "setting": "HsProRS; Log[inhibitor] (M) -7.409", "result": "9.56E-01 and 9.55E-01 and 9.01E-01"}, {"measurement": "normalized TR-FRET ligand displacement signal, dose-response replicates (SI Fig 6)", "setting": "HsProRS; Log[inhibitor] (M) -7.710", "result": "9.45E-01 and 1.01E+00 and 9.79E-01"}, {"measurement": "TR-FRET dose-response, normalized signal (SI Fig 11)", "setting": "HsProRS; Log[inhibitor] (M) -7.710", "result": "9.86E-01 and 9.70E-01 and 9.64E-01"}, {"measurement": "normalized TR-FRET ligand displacement signal, dose-response replicates (SI Fig 6)", "setting": "HsProRS; Log[inhibitor] (M) -8.000", "result": "1.07E+00 and 1.06E+00 and 9.51E-01"}, {"measurement": "TR-FRET dose-response, normalized signal (SI Fig 11)", "setting": "HsProRS; Log[inhibitor] (M) -8.000", "result": "9.84E-01 and 9.81E-01 and 9.67E-01"}, {"measurement": "normalized TR-FRET ligand displacement signal, dose-response replicates (SI Fig 6)", "setting": "HsProRS; Log[inhibitor] (M) -8.301", "result": "9.49E-01 and 8.91E-01 and 8.92E-01"}, {"measurement": "TR-FRET dose-response, normalized signal (SI Fig 11)", "setting": "HsProRS; Log[inhibitor] (M) -8.301", "result": "9.40E-01 and 1.01E+00 and 9.29E-01"}, {"measurement": "normalized TR-FRET ligand displacement signal, dose-response replicates (SI Fig 6)", "setting": "HsProRS; Log[inhibitor] (M) -8.602", "result": "9.06E-01 and 1.02E+00 and 1.07E+00"}, {"measurement": "TR-FRET dose-response, normalized signal (SI Fig 11)", "setting": "HsProRS; Log[inhibitor] (M) -8.602", "result": "9.70E-01 and 9.81E-01 and 9.77E-01"}, {"measurement": "normalized TR-FRET ligand displacement signal, dose-response replicates (SI Fig 6)", "setting": "HsProRS; Log[inhibitor] (M) -9.000", "result": "1.02E+00 and 8.38E-01 and 9.71E-01"}, {"measurement": "TR-FRET dose-response, normalized signal (SI Fig 11)", "setting": "HsProRS; Log[inhibitor] (M) -9.000", "result": "1.01E+00 and 9.79E-01 and 9.47E-01"}, {"measurement": "normalized TR-FRET ligand displacement signal, dose-response replicates (SI Fig 6)", "setting": "HsProRS; Log[inhibitor] (M) -9.301", "result": "9.40E-01 and 9.94E-01 and 9.82E-01"}, {"measurement": "TR-FRET dose-response, normalized signal (SI Fig 11)", "setting": "HsProRS; Log[inhibitor] (M) -9.301", "result": "9.53E-01 and 9.63E-01 and 8.99E-01"}, {"measurement": "HsProRS % signal at 10 μM", "setting": "HsProRS; no added proline/ATP (-), 10 μM", "result": 71.3, "unit": "%"}, {"measurement": "IC50", "setting": "HsProRS; read-out: HsProRS IC50 + 100 μM proline, + 100 μM proline", "result": "> 10", "unit": "µM"}, {"measurement": "dose-response value per replicate (SI Fig 2g)", "setting": "P. falciparum Dd2-2D4; Log[inhibitor] (M) -7.408", "result": 111}, {"measurement": "EC50", "setting": "P. falciparum Dd2-2D4; Plasmodium falciparum, DD2, SI Fig 16b, values on -log scale, read-out: ABS - Dd2-2D4 (converted)", "result": 12.3, "unit": "µM"}]}
